Data set [1] in a line: Pharmacokinetic study in SD rats after intragastric administration of pro-EGCG, plasma by UPLC-Qtof-MS. Format: in vivo, Sprague Dawley (SD) rats. On the procedure:
Fourteen to 16-weeks old female Sprague Dawley (SD) rats at reproductive age and of approximately 250 g were grouped in different cages in an air-conditioned room (22 ± 2°C) with a 12-h controlled lighting cycle. The SD rats were fed with standard chow and given free access to water. They were acclimatized for 1 week before the experiment. The study was approved by the Animal Experimentation Ethics Committee of the Chinese University of Hong Kong and was performed according to institutional guidelines. For validation studies, the rats were fasted overnight and then anesthetized by inhaling isoflurane (Baxter, IL, United States) for 15 min. Blank blood samples, approximately 10 mL, were withdrawn by cardiac puncture after experiments and before sacrifice.
Venous blood drawn from the SD rats was stored in an EDTA tube in an […] ice bath for not more than 10 min and centrifuged at 1780 × g and […] for 10 min. Plasma was aliquoted in 50 μL, mixed with 6 µL formic acid, and either immediately processed or stored at -80°C.
The extraction procedure was modified from our previous study ([Chu et al., 2014]). A plasma aliquot was spiked with 2.5 µL of 100 μg/mL pro-EGCG internal standard and mixed with 300 µL of isopropanol and 3 µL of formic acid. After vortexing for 2 min and sonicating for 2 min, 1 mL of MTBE and 150 µL magnesium chloride 0.043% solution were added. The mixture was again vortexed for 2 min and sonicated for 2 min. After settling, the mixture was centrifuged at 2,624 × g and 4°C for 10 min. The supernatant was pipetted into a glass tube by a glass Pasteur pipette and avoided touching the protein layer. The remaining aqueous layer was re-extracted by isopropanol and MTBE as described above. The supernatant was mixed with the previous extract and purged to dryness by nitrogen. The dried residues were dissolved in 100 µL methanol, sonicated for 30 s, vortexed for 2 min, and centrifuged at 3,634 × g at 4°C for 15 min. The supernatant was transferred to an HPLC vial for LCMS analysis. Methanol can completely dissolve pro-EGCG and precipitate protein matrix from the residues.
Plasma extract was analyzed by Agilent 6,540 Liquid chromatography-electrospray ionization quadrupole-TOF Mass Spectrometer. The extract, 8 μL, was separated by Waters Cortex UPLC C18 1.6 µm × 2.1 × 150 mm column (Waters, Milford, MA). Mobile phase A was 0.1 mM ammonia solution/acetonitrile/methanol/formic acid [80:15:5:0.2 (v/v/v/v)] and mobile phase B acetonitrile/methanol/0.1 mM ammonia solution/formic acid [92.5:5:2.5:0.2 (v/v/v/v)]. The column temperature was 40°C and the flow rate was 0.4 mL/min. The binary elusion program: 20% B, 0–2 min; 20%–60% B, 2–10 min; 60%–100% B, 10–11 min; 100% B, 11–18 min; 100%–20% B, 18–19 min; 20% B, 19–24 min. Positive electrospray ionization was used with capillary voltage (VCap) at 4500V, nozzle voltage at 1000 V, the gas temperature at 300°C, drying gas at 8 L/min, nebulizer pressure at 40 psi, sheath gas temperature at 300°C, and sheath gas flow at 11 L/min. The acquisition range was 100–1,000 m/z. The exact mass method was used for quantification at the range of 812.2043 ± 0.06 m/z for pro-EGCG ammonium adduct [M + NH4]^+ and 803.2039 ± 0.06 m/z for internal standard pro-EGCG-1–13C8 hydrogen adduct [M + H]^+. The mass was locked by continuous infusion of calibration standards with lock mass calibrated at 922.0 m/z.
For analysis of the metabolites, the predicted masses of pro-EGCG metabolites as calculated from de-acetylation, glucuronidation, sulphation, and methylation were scanned from the chromatogram of the first-hour plasma samples after intragastric administration of pro-EGCG. For a particular metabolite, the predicted target molecular mass of the metabolite was submitted for MS/MS analysis within ± 1 min around the retention time of the peak. The chromatography and mass spectrum conditions were the same as above. The collision energy was set for […] and the daughter ion scan ranged from 100–1,000 Da. […]

The test system of data set [2] is induced skin tumors. On the set-up: method as in Chiou et al., 2013. To be noted: mice with induced skin tumors; ref Chiou et al., 2013; cited from earlier work.
Data set [3] has as its system human lung cancer H460 cells. Further details: method as in Heyza et al., 2018. The following applies: compared with EGCG treatment, ref Heyza et al., 2018; cited from earlier work.
A short description of data set [4]: Stability of pro-EGCG in rat plasma (room temperature; esterase inhibitors; formic acid). To be noted: for stability of pro-EGCG in plasma at room temperature: 50 μg/mL pro-EGCG spiked in rat plasma, 0-60 min. Format: in vitro ADME. The method, then: The stability of pro-EGCG in plasma at room temperature was assessed by spiking 50.0 μg/mL pro-EGCG into three sets of 50 µL plasma samples. Each plasma sample was spiked with 5.0 μg/mL pro-EGCG internal standard at time points 0, 3, 5, 10, 20, 30, and 60 min before snap-frozen by liquid nitrogen. The samples were processed as described above and analyzed by UPLC‐Qtof-MS.
We also evaluated the stabilizing effect of different esterase inhibitors. The inhibitors, 4-(2-aminoethyl-)benzenesulponylfluoride HCL (penfabloc), bis-nitophenyl phosphate (BNPP), N-α-tosyl-L-lysine chloromethylketone HCL (TLCK), and dichlorvos, at plasma level of 30 mM; a mixture of sodium fluoride–potassium oxalate (NaF-KO) at plasma level of 10.0 mg/mL and 8.0 mg/mL; and 6 µL formic acid in 50 µL fresh rat plasma sample were used. Subsequently, pro-EGCG was spiked into the blank rat plasma at 5.0 μg/mL in an ice bath for 10 min. An internal standard, 5.0 μg/mL, was added to the plasma samples and snap-frozen by liquid nitrogen at the 10th minute. Three sets of samples were tested. The samples were processed as above and analyzed by UPLC‐Qtof-MS.
The stability of pro-EGCG in plasma with formic acid was assessed by mixing 6 µL of formic acid with 5.0 μg/mL pro-EGCG in 50 µL plasma and stored in an ice bath. Each three plasma samples were spiked with 5.0 μg/mL pro-EGCG internal standard and snap-frozen by liquid nitrogen at time points 0, 10, 15, 20, 30, 45, and 60 min. The samples were analyzed as described. Stability (%)=calculated concentration of pro−EGCG under different treatment /actual spiked concentration×100%

The test system of data set [5] is plasma vascular endothelial growth factor (VEGF). On the set-up: method as in Wang et al., 2013. The following applies: mouse model with induced endometriotic lesions; ref Wang et al., 2013; cited from earlier work.
The nature of data set [6]: Stability of pro-EGCG in processed plasma extracts on storage. Format: physicochemical. To be noted: 5.0 μg/mL pro-EGCG of processed samples stored at 4°C for 7 days and 4 weeks at -20°C. The method, then: Three processed plasma samples extracted at 5.0 μg/mL were stored at 4°C for a week. They were tested at t = 0 and 7 days. This duration was selected to ensure the test period is sufficient to cover a batch of samples for analysis in the auto-sampler ([Brodie and Hill, 2002]; [Department of Medical Sciences Ministry of Public Health, 2022]). […] This test period covered common the maximum storage period pending for batches of analysis.

Details of data set [7]: method as in Lambert et al., 2006. The following applies: intragastric administration, CF-1 mice; ref Lambert et al., 2006; cited from earlier work.
The subject of data set [8] is proteasome activity of breast cancer cells, MDA-MB231. On the set-up: method as in Landis-Piwowar et al., 2007. The following applies: animal models, relative to EGCG, ref Landis-Piwowar et al., 2007; cited from earlier work.
Data set [9] concerns induced prostate cancer. On the set-up: method as in Lee et al., 2008. The following applies: nude mice with induced prostate cancer; relative to EGCG; ref Lee et al., 2008; cited from earlier work.
Where [10] appears, read: female, Sprague-Dawley, rat, plasma, po, 50 mg/kg, proposed metabolite in rat plasma after intragastric 50 mg/kg pro-EGCG, no standards, not confirmed, read-out: Tmax of pro-EGCG metabolite.
The mark [11] stands for this setting: female, Sprague-Dawley, rat, po, SD rats (n = 3), plasma, within 24 h after intragastric 50 mg/kg pro-EGCG, Mean ± SE.

Results on three molecules are retold here after PMC9592989, “Determination of (-)-epigallocatechin-3-gallate octaacetate and its metabolites in plasma of rats for pharmacokinetic study by ultra-performance-liquid-chromatography coupled to quadrupole-time-of-flight-mass-spectrometry” (Frontiers in Pharmacology, 2022).

Structures are written as SMILES. Read-outs that look alike come from different tables or passages of the source.

Regarding `CC(=O)Oc1cc([C@H]2Oc3cc(O)cc(O)c3C[C@H]2OC(=O)c2cc(O)c(O)c(O)c2)cc(O)c1OC(C)=O` [EGCG-2Ac, (-)-epigallocatechin-gallate (EGCG) diacetates], in data set [1] (setting [10]), the Tmax is about 1 h.

On to `CC(=O)Oc1cc([C@H]2Oc3cc(O)cc(O)c3C[C@H]2OC(=O)c2cc(O)c(O)c(O)c2)cc(OC(C)=O)c1OC(C)=O` [EGCG-3Ac, EGCG triacetates], for which the Tmax in [1] (setting [10]) is about 5 h. In addition, the “degradation of EGCG-3Ac (production rate of EGCG-2Ac)” value in data set [1] (rat plasma profile after intragastric 50 mg/kg pro-EGCG, peak ratio to internal standard) is recorded as “about 1.25 × 10^−5 EGCG-3Ac/IS/hr”.

With `CC(=O)Oc1cc(OC(C)=O)c2c(c1)O[C@H](c1cc(OC(C)=O)c(OC(C)=O)c(OC(C)=O)c1)[C@H](OC(=O)c1cc(OC(C)=O)c(OC(C)=O)c(OC(C)=O)c1)C2` [pro-EGCG, (-)-Epigallocatechin-gallate octaacetate], the “average number of tumors per mouse” value in [2] is “three folds lower”. Also, the tumor incidences entry in [2] is “three folds lower”. Besides, the “half-maximal inhibitory concentration (IC50) of clonogenicity” value in [3] is given as “slightly lower”. In addition, the “stability of pro-EGCG in plasma at room temperature” value in data set [4] is listed as “rapidly degraded”; in data set [4] (listed as Pro-EGCG) it was “unstable”. In addition, in data set [4] (formic acid treated plasma (6 µL in 50 µL), 5.0 μg/mL, 10 min in an ice bath, Mean ± SD, n = 3), the pro-EGCG remaining was found to be 103 ± 3.6%. Further, the pro-EGCG left result in data set [4] (other esterase inhibitors treated plasma (TLCK, BNPP, dichlorvos, pefabloc 30 mM; NaF-KO), 5.0 μg/mL, 10 min in an ice bath) is “less than 22%”. In addition, the “plasma VEGF concentration relative to the concentration treated by EGCG” value in [5] is recorded as “two-thirds”. Further, in data set [6], the Pro-EGCG remained entry is given as “above 95%”. For the same molecule, the Cmax (as a rule, the highest concentration seen after dosing) in data set [1] (female, Sprague-Dawley, oral, 50 mg/kg, non-compartmental analysis, rat plasma (n = 3) over 24 h) is 67 ± 0.04 ng/mL; in data set [1] (setting [11]), 67 ± 40 ng/mL. Moreover, the Tmax is 1.33 ± 0.33 h in data set [1] (female, Sprague-Dawley, rat, plasma, po, 50 mg/kg, SD rats (n = 3), plasma, within 24 h after intragastric 50 mg/kg pro-EGCG, Mean ± SE, read-out: Tmax) and 1.33 h in data set [1] (female, Sprague-Dawley, rat, plasma, po, 50 mg/kg, oral administration, SD rats, 50 mg/kg pro-EGCG, read-out: time-of-maximum-concentration (Tmax)). Further, the AUC (commonly the area under the concentration-time curve, a measure of exposure) in data set [1] (female, Sprague-Dawley, rat, plasma, oral administration, SD rats, 50 mg/kg pro-EGCG, read-out: area-under-curve (AUC)) was found to be 200 ± 50 ng·h/mL. In [1] (setting [11]), the MRT (usually a mean duration of stay, worked out from the concentration-time curve) is 12.9 ± 6.4 h. For the same molecule, in [1] (female, Sprague-Dawley, rat, po, SD rats (n = 3), plasma, within 24 h after intragastric 50 mg/kg pro-EGCG, Mean ± SE, read-out: Lambda Z (converted)), the k el was 5.56e-05 s⁻¹. For the same molecule, the elimination-rate in data set [1] (oral administration, SD rats, 50 mg/kg pro-EGCG) was 0.20 ± 0.11 h⁻¹. Further, the “bioavailability of EGCG compared with EGCG administered at equimolar doses” value in [7] is on record as “higher”. The “potency in inhibiting proteasome activity compared to the equivalent amount of EGCG” value in [8] was “more than two-fold”. In [9], the “tumor volume smaller after pro-EGCG treatment than EGCG treatment” value is reported as 40.1%.
